Reference: ChEMBL document CHEMBL5584310, “Phenanthrenes from Juncus articulatus with Antibacterial and Biofilm Formation Inhibitory Activity” (J Nat Prod, 2024)
Converted amounts (≈) assume the structure as drawn.

Tests used:
Escherichia coli = assay: Antibacterial activity against Escherichia coli ATCC 25922 assessed as inhibition of bacterial growth incubated for 16 hrs; format: functional
Pseudomonas aeruginosa = assay: Antibacterial activity against Pseudomonas aeruginosa PAO1 assessed as inhibition of bacterial growth incubated for 16 hrs; format: functional
Staphylococcus aureus [1] = assay: Antibacterial activity against methicillin-susceptible Staphylococcus aureus ATCC 6538 assessed as inhibition of bacterial growth incubated for 16 hrs; format: functional
Staphylococcus aureus [2] = assay: Antibacterial activity against methicillin-resistant Staphylococcus aureus ATCC 33592 assessed as inhibition of bacterial growth incubated for 16 hrs; format: functional
Staphylococcus aureus [3] = assay: Antibiofilm activity against methicillin-susceptible Staphylococcus aureus ATCC 6538 assessed as inhibition of biofilm formation incubated for 24 hrs by crystal violet staining based microplate reader assay; format: functional
Staphylococcus aureus [4] = assay: Antibiofilm activity against methicillin-resistant Staphylococcus aureus ATCC 33592 assessed as inhibition of biofilm formation incubated for 24 hrs by crystal violet staining based microplate reader assay; format: functional
HeLa = assay: Antiproliferative activity against human HeLa cells assessed as inhibition of cell growth incubated for 72 hrs by MTT assay; format: functional, cell-based
COLO 205 = assay: Antiproliferative activity against human COLO 205 cells assessed as inhibition of cell growth incubated for 72 hrs by MTT assay; format: functional, cell-based; details: COLO 205, 72 h
COLO 320 = assay: Antiproliferative activity against human COLO 320 cells assessed as inhibition of cell growth incubated for 72 hrs by MTT assay; format: functional, cell-based; details: COLO 320, 72 h
Staphylococcus aureus [5] = assay: Antibiofilm activity against methicillin-susceptible Staphylococcus aureus ATCC 6538 assessed as biofilm eradication incubated for 24 hrs by crystal violet staining based microplate reader assay; format: functional
Staphylococcus aureus [6] = assay: Antibiofilm activity against methicillin-resistant Staphylococcus aureus ATCC 33592 assessed as biofilm eradication incubated for 24 hrs by crystal violet staining based microplate reader assay; format: functional
SiHa = assay: Antiproliferative activity against human SiHa cells assessed as inhibition of cell growth incubated for 72 hrs by MTT assay; format: functional, cell-based

Row | SMILES | MIC (Escherichia coli) [µM] | MIC (Pseudomonas aeruginosa) [µM] | MIC (Staphylococcus aureus [1]) [µM] | MIC (Staphylococcus aureus [2]) [µM] | MBIC (Staphylococcus aureus [3]) [µM] | MBIC (Staphylococcus aureus [4]) [µM] | IC50 (HeLa) [µM] | IC50 (COLO 205) [µM] | IC50 (COLO 320) [µM] | MBEC (Staphylococcus aureus [5]) [µM] | MBEC (Staphylococcus aureus [6]) [µM] | IC50 (SiHa) [µM]
1 | C=Cc1c(C)c(Oc2c(O)c(C)c(C=C)c3ccc4c(C)c(O)ccc4c23)cc2c1ccc1c(C)c(O)ccc12 | > 121 | > 121 | 60.5 (≈ 31.9 µg/mL) | 60.5 (≈ 31.9 µg/mL) | 121 | – | – | – | – | – | – | –
2 | C=Cc1c(C)cc(O)c2c1CCc1c-2ccc(O)c1C | > 480 | > 480 | 30 (≈ 7.99 µg/mL) | 30 (≈ 7.99 µg/mL) | 60 | 60 | 12.3 | 12.3 | 12.3 | – | – | –
3 | C=Cc1c(C)c(O)cc2c1ccc1c(C)c(O)ccc12 | > 484 | > 484 | 15.1 (≈ 3.99 µg/mL) | 15.1 (≈ 3.99 µg/mL) | 15.1 | – | – | – | – | >484 | – | –
4 | C=Cc1c(C)c(O)cc2c1ccc1c(C)c(Oc3c(O)c(C)c(C=C)c4ccc5c(C)c(O)ccc5c34)ccc12 | > 243 | > 243 | 122 (≈ 64 µg/mL) | 122 (≈ 64 µg/mL) | – | – | – | – | – | – | – | –
5 | C=Cc1c(COC)c(O)cc2c1CCc1c-2ccc(O)c1C | > 413 | > 413 | 413 (≈ 122 µg/mL) | 413 (≈ 122 µg/mL) | – | – | – | – | – | – | – | –
6 | C#Cc1c(CO)c(O)cc2c1CCc1c-2ccc(O)c1C | > 457 | > 457 | 57.1 (≈ 16 µg/mL) | 57.1 (≈ 16 µg/mL) | 114.3 | – | 12.3 | 12.3 | 12.3 | – | – | –
7 | C=Cc1c(CO)cc(O)c2c1CCc1c-2ccc(O)c1C | > 454 | > 454 | 114 (≈ 32 µg/mL) | 114 (≈ 32 µg/mL) | 227 | 227 | 12.3 | 12.3 | 12.3 | – | – | –
8 | C=Cc1c(C)c(O)cc2c3c(ccc12)C(C)(O)C(=O)C=C3 (stereo not drawn) | > 458 | > 458 | 229 (≈ 64.2 µg/mL) | 229 (≈ 64.2 µg/mL) | – | – | – | – | – | – | – | –
9 | C=Cc1c(CO)c(O)cc2c1ccc1c(C)c(O)ccc12 | > 229 | > 229 | 114 (≈ 32 µg/mL) | 114 (≈ 32 µg/mL) | 114.3 | – | – | – | – | – | – | –
10 | C#Cc1c(C)c(O)cc2c1ccc1c(C)c(O)ccc12 | > 488 | > 488 | 15.3 (≈ 4.01 µg/mL) | 15.3 (≈ 4.01 µg/mL) | 15.3 | – | – | – | – | >488 | – | –
11 | C=Cc1c(COC)c(O)cc2c1ccc1c(C)c(O)ccc12 | > 435 | > 435 | 218 (≈ 64 µg/mL) | 218 (≈ 64 µg/mL) | – | – | – | – | – | – | – | –
12 | CN[C@H](CC(C)C)C(=O)N[C@H]1C(=O)N[C@@H](CC(N)=O)C(=O)N[C@H]2C(=O)N[C@H]3C(=O)N[C@H](C(=O)N[C@H](C(=O)O)c4cc(O)cc(O)c4-c4cc3ccc4O)[C@H](O)c3ccc(c(Cl)c3)Oc3cc2cc(c3O[C@@H]2O[C@H](CO)[C@@H](O)[C@H](O)[C@H]2O[C@H]2C[C@](C)(N)[C@H](O)[C@H](C)O2)Oc2ccc(cc2Cl)[C@H]1O [VANCOMYCIN] | 177 (≈ 256 µg/mL) | 1770 (≈ 2560 µg/mL) | – | 1.38 (≈ 2 µg/mL) | – | 1.38 | – | – | – | >88.3 | >88.3 | –
13 | C=Cc1c(C)c(O)cc2c1CCc1c-2cc(-c2cc3c(c(C)c2O)CCc2c-3cc(O)c(C)c2C=C)c(O)c1C | > 121 | > 121 | 60.5 (≈ 32.1 µg/mL) | 60.5 (≈ 32.1 µg/mL) | 121 | 242 | – | – | – | – | – | –
14 | C=Cc1c(C)c(O)c(-c2cc3c(c(C)c2O)CCc2c(C=O)c(C)cc(O)c2-3)c2c1ccc1c(C)c(O)ccc12 | > 121 | > 121 | 60.5 (≈ 32.1 µg/mL) | 121 (≈ 64.2 µg/mL) | – | – | – | – | – | – | – | –
15 | C=CC1=C(C)C(=O)C=C2c3ccc(O)c(C)c3CC[C@@]21O | > 454 | > 454 | 56.8 (≈ 16 µg/mL) | 56.8 (≈ 16 µg/mL) | 113.5 | – | – | – | – | – | – | –
16 | C=Cc1c(C)c(O)cc2c1CCc1c-2ccc(O)c1C | > 481 | > 481 | 481 (≈ 128 µg/mL) | 481 (≈ 128 µg/mL) | – | – | – | – | – | – | – | –
17 | O=C(O)c1cn(C2CC2)c2cc(N3CCNCC3)c(F)cc2c1=O [CIPROFLOXACIN] | – | 0.37 (≈ 0.123 µg/mL) | 0.37 (≈ 0.123 µg/mL) | 0.37 (≈ 0.123 µg/mL) | 0.75 | – | – | – | – | >386.7 | – | –
18 | C#Cc1c(CO)c(O)cc2c1ccc1c(C)c(O)ccc12 | > 230 | > 230 | 57.5 (≈ 16 µg/mL) | 115 (≈ 32 µg/mL) | 115 | 114.3 | – | – | – | – | – | –
19 | CC(=O)c1c(C)c(O)cc2c1ccc1c(C)c(O)ccc12 | > 457 | > 457 | 457 (≈ 128 µg/mL) | 457 (≈ 128 µg/mL) | – | – | – | – | – | – | – | –
20 | C=Cc1c(C)cc(O)c2c1CCc1c-2cc(-c2c(O)c(C)c(C=C)c3ccc4c(C)c(O)ccc4c23)c(O)c1C | > 242 | > 242 | 60.5 (≈ 32 µg/mL) | 60.5 (≈ 32 µg/mL) | 60.5 | 60.5 | 12.3 | 12.3 | 12.3 | – | – | –
21 | C#Cc1c(C)c(O)cc2c1CCc1c-2ccc(O)c1C | > 485 | > 485 | 121 (≈ 32.1 µg/mL) | 121 (≈ 32.1 µg/mL) | – | – | – | – | – | – | – | 25.3
